According to US10935552B2, “Aie luminogens for visualization and treatment of cancer” (THE HONG KONG UNIVERSITY OF SCIENCE AND TECHNOLOGY, priority 2015, dated 2021):

Key:
lysosome = experiment: Lysosome imaging in HeLa cells, co-staining with LTR; type: cell-based, human; conditions: HeLa cells
Experimental: Then, AIE-LysoY was applied to lysosome imaging and its lysosome-targeting performance was assessed by fluorescence microscope. HeLa cells were stained with 10 μM of AIE-LysoY for 10 min, followed by washing away the abundant molecules of AIE-LysoY and incubation with 50 nM of LTR for 30 min. […] The fluorescence of AIE-LysoY overlaps perfectly with that of LTR, indicating the lysosome-targeting of AIE-LysoY.
Quantitative analysis of the degree of overlapping of these two fluorescence signals by Pearson's coefficient (Rr), which depicts the degree of linear dependence between two variables, gives an overlapping coefficient of 0.90. The high Rr value proves that AIE-LysoY is a lysosome-selective probe. […] Changing the staining time from 10 min to 60 min, the specificity to lysosome is retained, as well as the emission contrast.
To design the lysosome-specific bioprobe, a molecular engineering approach was employed. The precursor of AIE-LysoY, FAS-Br, and two morpholine-functionalized AIEgens, TPE-2Mor and Nred-mor were prepared and applied to cell imaging. The molecular structures of TPE-2mor and Nred-mor are shown below: […]

HeLa cells [1] = experiment: MTT cell viability assay, HeLa cells; type: cell-based, human; conditions: HeLa, different concentrations, 24 hrs
Experimental: Hela cells were incubated with different concentrations of Naph-IQ in culture medium for 24 hours.
Before employing AIE-LysoY as a fluorescent visualizer of lysosome, a 3-(4,5-dimethyl-2-thiazolyl)-2,5-diphenyltetrazolium bromide (MTT) cell proliferation assay was first conducted to evaluate its cytotoxicity. […] The good biocompatibility of AIE-LysoY enables its application as a fluorescent tracer to follow the autophagic process of lysosome.

mitochondria = experiment: Co-staining with commercial organelle trackers in HeLa cells (mitochondria staining); type: cell-based, human
Experimental: The HeLa cells were grown overnight on a 35 mm petri dish with a cover slip. Then the HeLa cells were stained with 200 nM TPE-IQ-2O and Mito-tracker red (50 nM)/Lyso-tracker red (50 nM)/DAPI (500 nM) for 20 mins.
The DMSO solution of DPA-IQ was almost non-emissive while the aggregation state powder of this material emits strong green luminescence upon the UV excitation.
The commercially available MitoTracker Red FM is co-stained as a control together with Naph-IQ.

HeLa cells [2] = experiment: Cancer cell imaging for HeLa cells (TTE, TFE, fl-TFE); type: cell-based, human; conditions: 10 μM; TTE in HeLa and A549, TFE and fl-TFE only in HeLa
Experimental: Cell Culture. HeLa cells were cultured in MEM containing 10% FBS and 1% antibiotics (100 units/mL penicillin and 100 µg/mL streptomycin) in a 5% CO2 humidity incubator at 37° C. Cell Imaging. Lung cancer cell A549 were cultured in DMEM containing 10% FBS and antibiotics (100 units/mL penicillin and 100 µg/mL streptomycin) in a 5% CO2 humidity incubator at 37° C. Two different kind of cells were grown overnight on a 35 mm petri dish with a cover slip. The live cells were incubated with 10 μM of TTE for 15/30 mins, TFE for 30′ and fl-TFE for 30′ and 5 h (the last two have been tested only in HeLa cells). In a typical experiment, 2 μL of a 10 mM stock solution of TTE in DMSO were diluted to 1 mL with cell culture medium, followed by further dilution to desired concentration. The cells were imaged under a fluorescent microscope (BX41 Microscope) using same excitation and emission filters: excitation filter=330-385 nm, dichroic mirror=420 nm, and emission filter=400 nm long pass.
The HeLa cells were grown overnight on a 35 mm petri dish with a cover slip. The live cells were incubated with 10 μM of TTE for 30 mins, which are shown in FIG. 17A-B. The HeLa cells were incubated with 50 μM oleic acid for 6 hrs and then were co-stained by 10 μM TTE and 1 μg/mL for 15 mins.

MCF-7 cells = experiment: Lysosomal imaging in MCF-7 cells, co-staining with LTR; type: cell-based; conditions: MCF-7, 50 nm TMX 24 hrs, matched with LTR
Experimental: The behavior of TPE-TMX in cellular settings was studied as compared to TMX. MCF-7 cells were incubated with 2 μM TPE-TMX and […] TMX for 24 hrs, respectively. The cells were then washed and directly observed under the microscope without fixation. […] However, the exact intracellular location of TMX cannot be confirmed by fluorescent microscopy because its emission wavelength is not in the range of the visible spectrum. Therefore, a series of commercial fluorescent markers were used to image drug delivery of TMX. […] On the other hand, TPE-TMX, without any aid of fluorescent dye, can be successfully monitored in the cells thanks to its intense blue emission. The controls display no emission under UV irradiation.
To further confirm the subcellular distribution of TPE-TMX, LTR was also used to co-stain MCF-7 cells with TPE-TMX. […] As expected, TPE-TMX is a specific fluorescent dye to visualize lysosomal organelle structures as well as monitor the drug release.

With Oc1cc(OCCCCCCBr)ccc1/C=N/N=C1c2ccccc2-c2ccccc21 [FAS-Br, (E)-2-(((9H-fluoren-9-ylidene)hydrazono)methyl)-5-((6-bromohexyl)oxy)phenol] the “Intracellular localisation of control probes” value (“Intracellular localisation” for short) (lysosome) was “lights up intracellular lipid droplets and the recticulum structures of mitochondria in HeLa cells rather than lysosomes”.

With CCC[n+]1cc2ccc(-c3cccc4c(OC)cccc34)cc2c(-c2ccccc2)c1-c1ccccc1 [Naph-IQ] the “Cytotoxicity by MTT assay” value (HeLa cells [1]) was “low cytotoxicity” and the “Mitochondrial staining compared with MitoTracker Red FM” value (mitochondria) was “can stain the mitochondrial organelle as good as MitoTracker Red FM with higher resolution”.

With CN(C)c1ccc(/C=C(\C#N)c2ccc(-c3cc[n+](CCCCCCN4CCOCC4)cc3)cc2)cc1 [Nred-mor] the “Intracellular localisation” value (lysosome) was “selectively accumulates in the mitochondria”.

c1coc(C(=C(c2ccco2)c2ccco2)c2ccco2)c1 [TFE, Tetrakis(2-furyl)ethene] was tested, and the “Ability to enter cells as bioprobe” value (HeLa cells [2]) was “Only TTE has revealed to be useful for this purpose”.

CC/C(=C(\c1ccccc1)c1ccc(OCCN(C)C)cc1)c1ccccc1 [TMX, Tamoxifen, reference compound] was tested, and the Subcellular distribution (MCF-7 cells) was “possible to be localized on the lysosomes”.

For CCC[n+]1cc2ccc(-c3ccc(N(c4ccccc4)c4ccccc4)cc3)cc2c(-c2ccccc2)c1-c1ccccc1 [TPA-IQ], the “Cytotoxicity by MTT assay” value (HeLa cells [1]) was “low cytotoxicity” and the “Mitochondrial staining compared with MitoTracker Red FM” value (mitochondria) was “can stain the mitochondrial organelle as well as the commercially available MitoTracker Red FM with higher resolution”.

In the case of c1ccc(C(=C(c2ccccc2)c2ccc(CN3CCOCC3)cc2)c2ccc(CN3CCOCC3)cc2)cc1 [TPE-2Mor], the “Intracellular localisation” value (lysosome) is reported as “stains all the hydrophobic regions”.

c1cc2c3ccoc3c3c4occc4c4ccoc4c3c2o1 [fl-TFE, Tetrafuro[2,3-a:3′,2′-c:2″,3″-f:3″′,2″′-h]-naphthalene] was tested, and the “Ability to enter cells as bioprobe” value (HeLa cells [2]) was “Only TTE has revealed to be useful for this purpose”.
